Measured values taken from US20160215031A1, “METHOD OF TREATING DISORDERS REQUIRING DESTRUCTION OR REMOVAL OF CELLS” (Nymox Pharnaceutical Corporation, priority 2015, published 2016).
Marks after values point to notes of the source that are not given here.

Legend:
[1] = system: patients with BPH; experiment: Intraprostatic injection in patients with BPH: difference from baseline International Prostate Symptom Score (Mean IPSS Improvement); assay type: in vivo, men
Description: (§1) In a study of 978 men, patients with BPH were given an intraprostatic injection of either a) DRUG in phosphate buffered saline pH 7.2 (“PBS”) or b) PBS alone, under double-blind conditions by a urologist in an office setting under ultrasound guidance. Each patient was followed for one year or longer with regular physical examinations, laboratory tests, and evaluations of symptoms. Symptomatic evaluation was measured by the International Prostate Symptom Score (IPSS) which is a quantitative scale used to gauge prostatic symptomatic improvement or worsening. The IPSS quantifies the following: 1) incomplete bladder emptying after urination; 2) frequent urination; 3) stopping and starting during urination; 4) urgent need to urinate; 5) weakness of urinary stream; 6) need to push or strain during urination; 7) need to urinate after going to sleep at night (nocturia). The difference from baseline IPSS was compared in patients who were given DRUG vs patients who received PBS alone. Patients who had no previous history of conventional drug treatment (“treatment naïve”) were compared to patients who had previously failed on other conventional approved drugs such as alpha blockers or 5-alpha reductase inhibitors.
Patients with BPH were given an intraprostatic injection of either a) DRUG in phosphate buffered saline pH 7.2 (“PBS”) or b) PBS alone, under double-blind conditions by a urologist in an office setting under ultrasound guidance. Each patient was followed for one year or longer with regular physical examinations, laboratory tests, and evaluations of symptoms. Symptomatic evaluation was measured by the International Prostate Symptom Score (IPSS) which is a quantitative scale used to gauge prostatic symptomatic improvement or worsening. The IPSS quantifies the following: 1) incomplete bladder emptying after urination; 2) frequent urination; 3) stopping and starting during urination; 4) urgent need to urinate; 5) weakness of urinary stream; 6) need to push or strain during urination; 7) need to urinate after going to sleep at night (nocturia). The difference from baseline IPSS was compared in patients who were given DRUG vs patients who received PBS alone. Patients who had both a) no previous history of conventional drug treatment (“treatment naïve”) and b) their BPH symptoms for <10 years, were compared to patients who had either a) previously failed on other conventional approved drugs such as alpha blockers or 5-alpha reductase inhibitors or b) had their BPH symptoms for >=10 years.
In a study of 978 men, patients with BPH were given an intraprostatic injection of either a) DRUG in phosphate buffered saline pH 7.2 (“PBS”) or b) PBS alone, under double-blind conditions by a urologist in an office setting under ultrasound guidance. Each patient was followed for one year or longer with regular physical examinations, laboratory tests, and evaluations of symptoms. Symptomatic evaluation was measured by the International Prostate Symptom Score (IPSS) which is a quantitative scale used to gauge prostatic symptomatic improvement or worsening. The IPSS quantifies the following: 1) incomplete bladder emptying after urination; 2) frequent urination; 3) stopping and starting during urination; 4) urgent need to urinate; 5) weakness of urinary stream; 6) need to push or strain during urination; 7) need to urinate after going to sleep at night (nocturia). The difference from baseline IPSS at an average of 22 months after treatment was compared in patients who were given DRUG vs patients who received PBS alone. Patients who were followed for only 12 months were imputed a change from 12 months onward equal to the mean of their group. Patients who had no previous history of conventional drug treatment (“treatment naïve”) were compared to patients who had previously failed on other conventional approved drugs such as alpha blockers or 5-alpha reductase inhibitors. […]

[2] = system: patients with BPH; experiment: Intraprostatic injection in patients with BPH: proportion of patients worsening by IPSS; assay type: in vivo, men; design: decrease in the proportion of patients worsening over time, compared to the control: concentration or dose not given beside the values
Description: as §1
Patients with BPH were given an intraprostatic injection of either a) DRUG in phosphate buffered saline pH 7.2 (“PBS”) or b) PBS alone, under double-blind conditions by a urologist in an office setting under ultrasound guidance. Each patient was followed for one year with regular physical examinations, laboratory tests, and evaluations of symptoms. Symptomatic evaluation was measured by the International Prostate Symptom Score (IPSS) which is a quantitative scale used to gauge prostatic symptomatic improvement or worsening. The IPSS quantifies the following: 1) incomplete bladder emptying after urination; 2) frequent urination; 3) stopping and starting during urination; 4) urgent need to urinate; 5) weakness of urinary stream; 6) need to push or strain during urination; 7) need to urinate after going to sleep at night (nocturia). The difference from baseline IPSS was compared in patients who were given DRUG vs patients who received PBS alone. Previous treatment naive patients who had BPH history <10 years were compared to patients with previous treatment failure and to patients with BPH history >=10 years.

## DRUG: NTP peptide given by intraprostatic injection in PBS pH 7.2; sequence not stated in the examples, probably SEQ ID NO. 66 (IDQQVLSRIKLEIKRCL)
[1]; 12 months (Example 5)
  improvement of patients symptomatic for less than 10 years compared to patients symptomatic for more than 10 years: about 40.9%
[1]; 90 days (Example 1)
  improvement in treatment naive patients compared to the improvement found in treatment failure patients: ~1,700%
  increase in treatment naive patients compared to the improvement found in treatment failure patients: 16.7 fold
[1]; duration of BPH symptoms <10 years, 12 months after treatment
  Mean IPSS Improvement: 6.2*
[1]; duration of BPH symptoms ≧10 years, 12 months after treatment
  Mean IPSS Improvement: 4.4
[1]; naive <10 years vs previously treated with symptoms for more than 10 years, 22 months (Example 4)
  improvement compared to previously treated patients receiving the same drug: about 61.7%
[1]; naive <10 years vs previously treated with symptoms for more than 10 years, 90 days (Example 2)
  improvement compared to previously treated patients receiving the same drug: about 39.7%
[1]; naive <10 years vs previously treated, worded 'symptoms for less than 10 years', 22 months (Example 4)
  improvement compared to previously treated patients receiving the same drug: 48.6%
[1]; naive <10 years vs previously treated, worded 'symptoms for less than 10 years', 90 days (Example 2)
  improvement compared to previously treated patients receiving the same drug: 35.4%
[1]; naive patients vs PBS, 22 months (Example 3)
  Mean IPSS Improvement when compared to the control: about 52.9%
[1]; naive patients vs PBS, 90 days (Example 1)
  Mean IPSS Improvement when compared to the control: about 26.5%
[1]; naive patients, BPH symptoms <10 years, vs PBS, after 22 months (Example 4)
  Mean IPSS Improvement when compared to the control: about 61.7%
[1]; no previous treatment (treatment naive), 90 days after treatment
  Mean IPSS Improvement: 8.6*
[1]; previous BPH treatment (treatment failure), 90 days after treatment
  Mean IPSS Improvement: 6.5
[1]; treatment failure and duration of BPH symptoms ≧10 years, 22 months after treatment
  Mean IPSS Improvement: 3.4
[1]; treatment failure and duration of BPH symptoms ≧10 years, 90 days after treatment
  Mean IPSS Improvement: 6.3
[1]; treatment failure patients vs PBS, 90 days (Example 1)
  Mean IPSS Improvement when compared to the control: about 1.5%
[1]; treatment failure, 22 months after treatment
  Mean IPSS Improvement: 3.7
[1]; treatment naive and duration of BPH symptoms <10 years, 22 months after treatment
  Mean IPSS Improvement: 5.5*
[1]; treatment naive and duration of BPH symptoms <10 years, 90 days after treatment
  Mean IPSS Improvement: 8.8*
[1]; treatment naive, 22 months after treatment
  Mean IPSS Improvement: 5.2*
[2]; 12 months (Example 6)
  improvement in proportion of patients worsening, treatment naive compared to treatment failure patients: 4.15 fold
  reduction of the proportion of patients worsening, treatment naive compared to treatment failure patients: ~420%
[2]; IPSS >0 at 12 months, treatment naive
  Proportion of patients worsening: 0.097*
[2]; IPSS >0 at one year (Example 7)
  decrease in the proportion of patients worsening over time, treatment naive compared to treatment failure patients: about 55.6%
[2]; IPSS >0 at one year, BPH history ≧10 years
  Proportion of patients worsening: .20
[2]; IPSS >0 at one year, treatment naive and BPH symptoms <10 years
  Proportion of patients worsening: .08
[2]; IPSS >1 at one year (Example 7)
  decrease in the proportion of patients worsening over time, treatment naive compared to treatment failure patients: ~50%
[2]; IPSS >1 at one year, BPH history ≧10 years
  Proportion of patients worsening: .13
[2]; IPSS >1 at one year, treatment failure
  Proportion of patients worsening: .12
[2]; IPSS >1 at one year, treatment naive and BPH symptoms <10 years
  Proportion of patients worsening: .06
[2]; IPSS >2 at one year (Example 7)
  decrease in the proportion of patients worsening over time, treatment naive compared to treatment failure patients: ~50%
[2]; IPSS >2 at one year, BPH history ≧10 years
  Proportion of patients worsening: .10
[2]; IPSS >2 at one year, treatment failure
  Proportion of patients worsening: .08
[2]; IPSS >2 at one year, treatment naive and BPH symptoms <10 years
  Proportion of patients worsening: .04***
[2]; history of BPH for more than 10 years, IPSS >0 at one year (Example 7)
  decrease in the proportion of patients worsening over time, compared to the control: about 4.7%
[2]; history of BPH for more than 10 years, IPSS >1 at one year (Example 7)
  decrease in the proportion of patients worsening over time, compared to the control: ~18.8%
[2]; history of BPH for more than 10 years, IPSS >2 at one year (Example 7)
  decrease in the proportion of patients worsening over time, compared to the control: ~16.7%
[2]; naive patients <10 years, IPSS >0 at one year (Example 7)
  decrease in the proportion of patients worsening over time, compared to the control: about 61.9%
[2]; naive patients <10 years, IPSS >1 at one year (Example 7)
  decrease in the proportion of patients worsening over time, compared to the control: ~62.5%
[2]; naive patients <10 years, IPSS >2 at one year (Example 7)
  decrease in the proportion of patients worsening over time, compared to the control: ~66.7%
[2]; naive patients, IPSS >0 at 12 months (Example 6)
  decrease in the proportion of patients worsening over time, compared to the control: about 51.5%
[2]; treatment failure patients, IPSS >0 at 12 months (Example 6)
  decrease in the proportion of patients worsening over time, compared to the control: about 10%
[2]; treatment failure patients, IPSS >0 at one year (Example 7)
  decrease in the proportion of patients worsening over time, compared to the control: about 14.3%
[2]; treatment failure patients, IPSS >1 at one year (Example 7)
  decrease in the proportion of patients worsening over time, compared to the control: ~25%
[2]; treatment failure patients, IPSS >2 at one year (Example 7)
  decrease in the proportion of patients worsening over time, compared to the control: ~33.3%
